pIC50: −log10 of the molar value.
Molecular target: Glycogen synthase kinase-3 beta (Homo sapiens, UniProt P49841)
Experiment: Kinase Assay: The effect of test compounds on the activity of the protein kinases GSK-3β, VEGFR-2 and FLT-3 was evaluated based on half maximal inhibitory concentration (IC50) values determined by Millipore UK Ltd; Gemini Crescent; Dundee Technology Park; Dundee DD2 1SW; UK (IC50Profiler). Detailed protocols can be found at: www.millipore.com/drugdiscovery/dd3/assayprotocols.

Sequence of Glycogen synthase kinase-3 beta (P49841 whole entry): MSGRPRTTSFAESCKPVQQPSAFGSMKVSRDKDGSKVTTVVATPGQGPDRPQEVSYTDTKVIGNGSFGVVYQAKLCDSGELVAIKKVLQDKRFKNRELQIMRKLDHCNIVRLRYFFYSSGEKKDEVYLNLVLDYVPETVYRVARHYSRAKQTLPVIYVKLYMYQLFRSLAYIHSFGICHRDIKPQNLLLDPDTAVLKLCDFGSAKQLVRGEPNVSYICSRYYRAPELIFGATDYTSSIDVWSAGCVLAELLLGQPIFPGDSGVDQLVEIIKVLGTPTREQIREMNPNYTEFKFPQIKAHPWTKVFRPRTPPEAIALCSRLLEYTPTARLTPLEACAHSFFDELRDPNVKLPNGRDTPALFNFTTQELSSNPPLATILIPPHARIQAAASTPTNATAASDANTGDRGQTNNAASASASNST

COc1cc(C2=C(c3cn(CCCO)c4ccccc34)C(=O)NC2=O)cc(OC)c1OC showed a pIC50 of 5.47.
